{
  "source": "paper PMC10799935",
  "about": "“Discovery of a peripheral 5HT2A antagonist as a clinical candidate for metabolic dysfunction-associated steatohepatitis” (Nature Communications, 2024)",
  "key": {"[1]": {"assay": "in vitro", "conditions": "human"}, "[2]": {"assay": "Hepatocyte stability test, dog", "assay_type": "in vitro ADME", "conditions": "male, beagle, cryopreserved hepatocytes, pH 7.4, read-out: Hepatocyte stability (% remaining after 3 h)", "experimental": "Hepatocyte incubations for the test compound (10 μM final concentration, n = 2 per each time point) were carried out in mouse, rat, dog, monkey and human cryopreserved hepatocytes, resuspended at a density of 0.5 million cells/ml of modified Krebs-Henseleit buffer (KHB). The information regarding the hepatocytes used in the experiment is as follows: liverPool® 10-donor mixed gender human (BioIVT, Cat.No. X008001, lot EAV), male cynomolgus monkey (BioIVT, Cat.No. M00305, lot COJ), male Beagle dog (BioIVT, Cat.No. M00205, lot USY), male Sprague Dawley rat (BioIVT, Cat.No. M00005, lot TQE) and male CD1 mouse (BioIVT, Cat.No.005052, lot LFF). In addition, the compound was also incubated with blank KHB. The final concentration of solvent (DMSO) was 0.1% of the final volume. The incubations were performed for 3 hours at 37°C and pH 7.4. Reactions were terminated at 0 and 180 minutes by the addition of 3 volumes of stop solution (acetonitrile/methanol (2:1, v/v) containing internal standard–diclofenac at 100 ng/ml). Samples (compound spiked buffer and compound spiked hepatocytes, as well as blank samples, i.e. hepatocytes with the same DMSO%) were then centrifuged and aliquots were transferred to 96-deep micronic tubes and frozen at -80 °C until LC-MS/MS analysis. […]"}, "[3]": {"target": "T1, 5HT1B (h) (Homo sapiens, UniProt P28222)", "T1 construct": "host or cells: Hela cells", "T1 sequence (P28222 whole entry)": "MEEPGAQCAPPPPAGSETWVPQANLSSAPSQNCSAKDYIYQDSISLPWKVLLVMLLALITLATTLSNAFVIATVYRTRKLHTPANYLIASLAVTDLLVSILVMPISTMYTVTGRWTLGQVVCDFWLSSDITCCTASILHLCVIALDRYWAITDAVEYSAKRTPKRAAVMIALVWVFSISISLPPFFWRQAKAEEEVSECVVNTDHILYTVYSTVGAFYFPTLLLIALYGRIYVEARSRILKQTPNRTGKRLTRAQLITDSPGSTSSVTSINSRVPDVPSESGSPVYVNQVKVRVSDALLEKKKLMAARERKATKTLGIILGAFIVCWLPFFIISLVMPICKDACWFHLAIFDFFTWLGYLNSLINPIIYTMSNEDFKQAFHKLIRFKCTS", "assay": "5HT subtype antagonism assay (Eurofins Cerep): 5HT1B", "assay_type": "cell-based", "conditions": "concentration not given", "experimental": "The derivatives were evaluated at a concentration of 1 μM for their antagonist activity on the 5HT2A receptor (Tables 1–3)[33],[34]. Human 5HT2A stably transfected HEK293 cells (a type of cell derived from kidney embryos)[20] were seeded in a 96-well plate (Costar; 3603) at a density of 9 × 10^4 in 100 μL of minimum essential medium (Welgene; LM007-86) containing 10% dialyzed fetal bovine serum (Gibco; 30067–334) and 1% penicillin/streptomycin (Gibco; 15140-122) and kept in a 37 °C incubator for 24 h. The cells were stained with 100 μL of cytosolic calcium dye using the FLIPR calcium 6 assay solution (Molecular devices, #R8190) supplemented with 2.5 mM probenecid (Sigma; P8761) and incubated for 1 h at 37 °C. After 1 h, the designated amount of the compound was treated in each well and incubated for another 1 h at 37 °C. Then, the cells were loaded in a Flexstation 3 microplate reader (Molecular Devices; FlexStaion) and 50 μL of 5 μM 5HT (serotonin hydrochloride, Sigma; H9523) was injected from a source plate (Nunc 96-well polystyrene conical bottom MicroWell Plate, Thermo; 249662) and the fluorescence intensity (Ex/Em-485nm/ 525 nm) was measured. […]\nAntagonism assay Source Stimulus Incubation Measured Detection Method […]"}, "[4]": {"test_system": "lipogenesis-related genes", "assay": "DIO mice: qRT-PCR of lipogenesis-related genes in liver", "assay_type": "in vivo, mouse", "conditions": "for Fasn gene expression, Predicted (LS) mean diff. / Htr2a gene expression, Predicted (LS) mean diff. / Pparγ gene expression, Predicted (LS) mean diff. / Srebp1c gene expression, Predicted (LS) mean diff.: Tukey's multiple comparisons test; for Fasn gene expression, Predicted (LS) mean / Htr2a gene expression, Predicted (LS) mean / Pparγ gene expression, Predicted (LS) mean / Srebp1c gene expression, Predicted (LS) mean: vehicle = 1", "experimental": "Total RNA extractions from harvested tissues were performed using TRIzol according to the manufacturer’s protocol. After TURBO DNase (Invitrogen) treatment, 2 μg of total RNA was used to generate complementary DNA with a High-Capacity cDNA Reverse Transcription Kit (Thermo Fisher Scientific). Quantitative RT-PCR was performed with Fast SYBR Green Master Mix (Thermo Fisher Scientific) and a Viia 7 Real-time PCR System (Thermo Fisher Scientific) according to the manufacturer’s instructions. Gene expression was relatively quantified based on the delta-delta Ct (threshold cycle) method with the beta-actin gene as a reference gene. The sequence of primers can be found in the Supporting Information (Supplementary Table 2)."}, "[5]": {"target": "CYP2D6 (Homo sapiens, UniProt P10635)", "sequence (P10635 whole entry)": "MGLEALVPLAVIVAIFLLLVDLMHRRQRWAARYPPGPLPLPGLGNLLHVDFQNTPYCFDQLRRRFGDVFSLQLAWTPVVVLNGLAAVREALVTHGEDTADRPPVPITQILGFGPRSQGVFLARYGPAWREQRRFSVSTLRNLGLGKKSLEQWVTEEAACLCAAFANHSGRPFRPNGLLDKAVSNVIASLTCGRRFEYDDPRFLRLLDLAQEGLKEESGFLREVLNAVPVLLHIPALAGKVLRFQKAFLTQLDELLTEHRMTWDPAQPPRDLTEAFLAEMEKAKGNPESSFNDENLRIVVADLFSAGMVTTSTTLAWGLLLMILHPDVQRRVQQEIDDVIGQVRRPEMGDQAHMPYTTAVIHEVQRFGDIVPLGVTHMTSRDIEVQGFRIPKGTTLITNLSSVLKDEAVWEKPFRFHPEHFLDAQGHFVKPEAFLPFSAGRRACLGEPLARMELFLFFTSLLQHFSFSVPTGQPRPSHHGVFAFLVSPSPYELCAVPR", "assay": "in vitro"}},
  "data": [
    {"smiles": "Cc1nc2n(c(=O)c1CCN1CCC(=C3c4ccc(Cl)cc4CCc4cccnc43)CC1)CCCC2O", "note": "(stereo not drawn) [Compound 11c]", "values": [
      {"measurement": "IC50", "setting": "[1]", "value": "> 100", "unit": "µM"},
      {"measurement": "remaining at 3 h, 10 μM", "setting": "[2]", "value": 88.5, "unit": "%"},
      {"measurement": "Selectivity 1B: % inhibition", "setting": "[3]", "value": 16, "unit": "%"},
      {"measurement": "Fasn gene expression, Predicted (LS) mean diff.", "setting": "[4]; 11c 5mpk vs. 11c 10mpk", "value": 0.1848},
      {"measurement": "Htr2a gene expression, Predicted (LS) mean diff.", "setting": "[4]; 11c 5mpk vs. 11c 10mpk", "value": 0.09643},
      {"measurement": "Pparγ gene expression, Predicted (LS) mean diff.", "setting": "[4]; 11c 5mpk vs. 11c 10mpk", "value": -0.1385},
      {"measurement": "Srebp1c gene expression, Predicted (LS) mean diff.", "setting": "[4]; 11c 5mpk vs. 11c 10mpk", "value": 0.2716},
      {"measurement": "Fasn gene expression, Predicted (LS) mean", "setting": "[4]; 11c 5mpk", "value": 0.7446},
      {"measurement": "Htr2a gene expression, Predicted (LS) mean", "setting": "[4]; 11c 5mpk", "value": 0.5102},
      {"measurement": "Pparγ gene expression, Predicted (LS) mean", "setting": "[4]; 11c 5mpk", "value": 0.8935},
      {"measurement": "Srebp1c gene expression, Predicted (LS) mean", "setting": "[4]; 11c 5mpk", "value": 0.7676},
      {"measurement": "Fasn gene expression, Predicted (LS) mean", "setting": "[4]; 11c 10mpk", "value": 0.5598},
      {"measurement": "Htr2a gene expression, Predicted (LS) mean", "setting": "[4]; 11c 10mpk", "value": 0.4138},
      {"measurement": "Pparγ gene expression, Predicted (LS) mean", "setting": "[4]; 11c 10mpk", "value": 1.032},
      {"measurement": "Srebp1c gene expression, Predicted (LS) mean", "setting": "[4]; 11c 10mpk", "value": 0.496},
      {"measurement": "expression of Fasn", "setting": "[4]; DIO mice, 10mpk", "value": "decreased"},
      {"measurement": "expression of Srebp1c", "setting": "[4]; DIO mice, 10mpk", "value": "reduced"},
      {"measurement": "expression of lipogenesis-related genes", "setting": "[4]; DIO mice, liver, vs vehicle", "value": "reduced"},
      {"measurement": "Fasn gene expression, Predicted (LS) mean diff.", "setting": "[4]; Vehicle vs. 11c 5mpk", "value": 0.2554},
      {"measurement": "Htr2a gene expression, Predicted (LS) mean diff.", "setting": "[4]; Vehicle vs. 11c 5mpk", "value": 0.4898},
      {"measurement": "Pparγ gene expression, Predicted (LS) mean diff.", "setting": "[4]; Vehicle vs. 11c 5mpk", "value": 0.1065},
      {"measurement": "Srebp1c gene expression, Predicted (LS) mean diff.", "setting": "[4]; Vehicle vs. 11c 5mpk", "value": 0.2324},
      {"measurement": "Fasn gene expression, Predicted (LS) mean diff.", "setting": "[4]; Vehicle vs. 11c 10mpk", "value": 0.4402},
      {"measurement": "Htr2a gene expression, Predicted (LS) mean diff.", "setting": "[4]; Vehicle vs. 11c 10mpk", "value": 0.5862},
      {"measurement": "Pparγ gene expression, Predicted (LS) mean diff.", "setting": "[4]; Vehicle vs. 11c 10mpk", "value": -0.03198},
      {"measurement": "Srebp1c gene expression, Predicted (LS) mean diff.", "setting": "[4]; Vehicle vs. 11c 10mpk", "value": 0.504},
      {"measurement": "inhibition at 10 µM", "setting": "[5]", "value": 26.3, "unit": "%"}
    ]}
  ]
}
